Source: patent US20250313535A1, “ALPHA 4 BETA 7 INTEGRIN MODULATORS AND USES THEREOF” (DICE MOLECULES SV, INC., priority 2022, published 2025)
Read-outs that look alike come from different tables or passages of the source.

Assays:
[1] = target: α4β1 integrin (Homo sapiens (Human), UniProt P05556+P13612); assay: Integrin Adhesion Assay: Protocol 5 (VCAM-coated plate, RPMI-8866 cells with stable LOF mutation of the ITGB7 gene); assay type: cell-based
Method in brief: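 RPMI-8866 B cells with CRISPR/Cas9 ITGB7 knockout (clonal, verified by flow cytometry) adhered to VCAM-coated wells for 1 h at 37° C in HEPES/NaCl buffer with 1 mM MnCl2, 0.1 mM CaCl2, 1% BSA, 1% DMSO. Bound cells quantified by CellTiter-Glo luminescence after washing; % inhibition versus DMSO and control, 4-parameter fit.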

[2] = target: α4β7 integrin (Homo sapiens (Human), UniProt P13612+P26010); assay: Integrin Adhesion Assay: Protocol 4 (MAdCAM-coated plate, RPMI-8866 cells with stable LOF mutation of the ITGB1 gene); assay type: cell-based
α4β7 integrin, sequence (P13612 34-1032): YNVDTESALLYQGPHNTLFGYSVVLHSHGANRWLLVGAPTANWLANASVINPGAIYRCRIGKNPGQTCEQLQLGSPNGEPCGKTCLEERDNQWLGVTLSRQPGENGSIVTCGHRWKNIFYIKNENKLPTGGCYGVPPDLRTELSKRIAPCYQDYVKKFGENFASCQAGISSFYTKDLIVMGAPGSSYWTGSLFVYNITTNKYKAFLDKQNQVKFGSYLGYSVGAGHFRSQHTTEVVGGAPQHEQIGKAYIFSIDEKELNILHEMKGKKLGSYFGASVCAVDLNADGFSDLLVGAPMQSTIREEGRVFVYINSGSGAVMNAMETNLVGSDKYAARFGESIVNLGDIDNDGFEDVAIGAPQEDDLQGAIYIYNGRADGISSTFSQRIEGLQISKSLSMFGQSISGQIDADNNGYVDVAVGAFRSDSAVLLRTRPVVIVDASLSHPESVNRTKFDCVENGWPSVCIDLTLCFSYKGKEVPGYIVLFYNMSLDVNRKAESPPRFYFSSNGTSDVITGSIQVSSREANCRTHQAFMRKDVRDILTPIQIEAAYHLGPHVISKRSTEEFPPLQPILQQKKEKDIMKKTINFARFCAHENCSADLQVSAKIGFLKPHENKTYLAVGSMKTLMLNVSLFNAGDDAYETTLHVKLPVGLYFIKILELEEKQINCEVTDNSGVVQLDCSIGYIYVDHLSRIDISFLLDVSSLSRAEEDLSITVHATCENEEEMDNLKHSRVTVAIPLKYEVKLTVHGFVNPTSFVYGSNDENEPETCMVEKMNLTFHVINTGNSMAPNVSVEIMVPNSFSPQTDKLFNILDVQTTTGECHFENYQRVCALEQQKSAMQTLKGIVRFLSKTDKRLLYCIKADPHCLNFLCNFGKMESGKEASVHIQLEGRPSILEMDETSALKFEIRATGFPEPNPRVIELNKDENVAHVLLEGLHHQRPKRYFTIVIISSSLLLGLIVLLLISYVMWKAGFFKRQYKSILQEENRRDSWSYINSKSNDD
α4β7 integrin, sequence (P26010 20-798): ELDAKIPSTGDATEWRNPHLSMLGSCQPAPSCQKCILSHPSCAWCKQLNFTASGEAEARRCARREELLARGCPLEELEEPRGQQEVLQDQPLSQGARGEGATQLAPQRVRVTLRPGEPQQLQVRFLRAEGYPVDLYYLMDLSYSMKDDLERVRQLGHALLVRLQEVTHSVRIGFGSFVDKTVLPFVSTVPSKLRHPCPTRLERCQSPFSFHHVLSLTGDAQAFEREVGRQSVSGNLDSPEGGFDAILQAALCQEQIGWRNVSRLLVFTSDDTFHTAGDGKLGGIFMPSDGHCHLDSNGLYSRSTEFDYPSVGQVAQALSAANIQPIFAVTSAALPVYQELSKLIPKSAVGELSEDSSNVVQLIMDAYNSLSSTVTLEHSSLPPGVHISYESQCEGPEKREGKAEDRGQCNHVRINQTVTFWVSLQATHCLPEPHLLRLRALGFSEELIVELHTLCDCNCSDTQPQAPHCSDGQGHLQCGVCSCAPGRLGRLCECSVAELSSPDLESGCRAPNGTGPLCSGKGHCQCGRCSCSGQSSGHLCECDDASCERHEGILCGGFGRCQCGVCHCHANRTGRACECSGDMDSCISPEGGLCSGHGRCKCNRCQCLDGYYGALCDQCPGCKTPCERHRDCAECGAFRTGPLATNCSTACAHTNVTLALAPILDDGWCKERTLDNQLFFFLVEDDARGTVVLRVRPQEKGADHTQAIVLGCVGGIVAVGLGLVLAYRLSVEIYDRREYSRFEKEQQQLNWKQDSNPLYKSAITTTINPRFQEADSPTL
Method in brief: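 RPMI-8866 cells with CRISPR/Cas9 knockout of ITGB1 (2×10^6/mL) were added to MAdCAM-coated wells with compound (1% DMSO) in HEPES/NaCl buffer with 1 mM MnCl2, 0.1 mM CaCl2 and 1% BSA, then incubated 1 h at 37 °C. After four washes, adherent cells were quantified by CellTiter-Glo luminescence. Percent inhibition versus DMSO and control compound was fitted to 4-parameter curves.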

[3] = RPMI-8866 cells with stable LOF mutation of the ITGB7 gene, read-out: Mean IC50 α4β1 KO^b
[4] = RPMI-8866 cells with stable LOF mutation of the ITGB1 gene, read-out: Mean IC50 α4β7 KO^a
[5] = Protocol 5, RPMI-8866 cells with LOF mutation of ITGB7, VCAM, read-out: Mean IC50 α4β1 KO
[6] = Protocol 4, RPMI-8866 cells with LOF mutation of ITGB1, MAdCAM, read-out: Mean IC50 α4β7 KO

α4β1 integrin, sequence (P13612 34-1032): as the sequence (P13612 34-1032) above
α4β1 integrin, sequence (P05556 21-798): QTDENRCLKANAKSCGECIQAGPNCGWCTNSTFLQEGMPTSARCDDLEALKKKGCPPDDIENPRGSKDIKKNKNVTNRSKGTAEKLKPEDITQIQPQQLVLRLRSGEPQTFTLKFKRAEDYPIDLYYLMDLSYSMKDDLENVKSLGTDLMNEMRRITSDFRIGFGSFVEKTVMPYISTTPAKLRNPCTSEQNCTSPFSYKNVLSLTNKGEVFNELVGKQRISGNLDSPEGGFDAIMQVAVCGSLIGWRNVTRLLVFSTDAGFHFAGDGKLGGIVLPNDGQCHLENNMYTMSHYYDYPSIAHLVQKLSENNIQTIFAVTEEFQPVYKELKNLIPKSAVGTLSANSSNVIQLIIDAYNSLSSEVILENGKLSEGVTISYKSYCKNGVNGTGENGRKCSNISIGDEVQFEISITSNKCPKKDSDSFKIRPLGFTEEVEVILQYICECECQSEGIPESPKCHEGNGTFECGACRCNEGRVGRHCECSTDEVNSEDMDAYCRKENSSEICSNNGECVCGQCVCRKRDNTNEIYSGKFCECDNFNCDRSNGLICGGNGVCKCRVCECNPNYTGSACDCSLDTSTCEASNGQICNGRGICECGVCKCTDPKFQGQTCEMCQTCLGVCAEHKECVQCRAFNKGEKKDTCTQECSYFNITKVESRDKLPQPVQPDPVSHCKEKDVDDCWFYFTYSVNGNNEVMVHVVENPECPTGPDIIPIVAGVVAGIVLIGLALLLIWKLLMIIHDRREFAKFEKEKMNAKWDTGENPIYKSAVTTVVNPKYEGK

Cn1c(=O)c(-c2cccc3c(C[C@H](NC(=O)C4(C(F)(F)F)CCN(CCC(F)(F)F)CC4)C(=O)O)cccc23)c(C(F)(F)F)c2ccccc21 [Compound 536]
IC50 [1, 3]: > 1000 nM
IC50 [2, 4]: 10 to 100 nM

O=C(O)[C@H](Cc1cccc2c(-c3ncc(CN4CCC5(CC4)CC5)c4ccccc34)cccc12)NC(=O)C1(C(F)(F)F)CCN(C2COC2)CC1 [Compound 694]
IC50 [1, 5]: 100 to 1000 nM
IC50 [2, 6]: < 10 nM

COc1ccc(CN2CC(c3ccccc3)C2)c(OC)c1-c1cccc2c(C[C@H](NC(=O)C3(C(F)(F)F)CCN(CC(F)(F)F)CC3)C(=O)O)cccc12 [Compound 815]
IC50 [1, 5]: > 1000 nM
IC50 [2, 6]: 10 to 100 nM

Cn1c(=O)c(-c2cccc3c(C[C@H](NC(=O)c4c(F)cccc4F)C(=O)O)cccc23)c(C(F)(F)F)c2cc(CCN3CCC3)ccc21 [Compound 709]
IC50 [1, 5]: > 1000 nM
IC50 [2, 6]: < 10 nM

COc1cccc(CN2CCC(F)CC2)c1-c1cccc2c(C[C@H](NC(=O)C3(C(F)(F)F)CCN(CC(F)(F)F)CC3)C(=O)O)cccc12 [Compound 827]
IC50 [1, 5]: > 1000 nM
IC50 [2, 6]: 10 to 100 nM

CCCS(=O)(=O)Nc1ccc(F)c(C(=O)N[C@@H](Cc2cccc3c(-c4c(C(F)(F)F)c5ccccc5n(C)c4=O)cccc23)C(=O)O)c1F [Compound 496]
IC50 [1, 3]: > 1000 nM
IC50 [2, 4]: 10 to 100 nM

Cc1cc(C(F)(F)F)c(-c2cccc3c(C[C@H](NC(=O)C4(C(F)(F)F)CCN(CC(F)(F)F)CC4)C(=O)O)cccc23)c(=O)n1C [Compound 453]
IC50 [1, 3]: 100 to 1000 nM
IC50 [2, 4]: < 10 nM

O=C(O)[C@H](Cc1cccc2c(-c3ncc(CN4CCN(C5CC5)CC4)cc3C3CC3)cccc12)NC(=O)C1(C(F)(F)F)CCN(CC(F)F)CC1 [Compound 952]
IC50 [1, 5]: 100 to 1000 nM
IC50 [2, 6]: < 10 nM

O=C(O)[C@H](Cc1cccc2c(-c3ncc(CN4CCCCC4)c4ccccc34)cccc12)NC(=O)C1(C(F)(F)F)CCN([C@H]2COCC2(F)F)CC1 [Compound 680]
IC50 [1, 3]: 100 to 1000 nM
IC50 [2, 4]: < 10 nM

O=C(O)[C@H](Cc1cccc2c(-c3ncc(CN4CCC5(CC4)CC5)c4ccccc34)cccc12)NC(=O)C1(C(F)(F)F)CCN(CC(F)F)CC1 [Compound 912]
IC50 [1, 5]: > 1000 nM
IC50 [2, 6]: < 10 nM

COc1cccc(OCCN2CCCCC2)c1-c1cccc2c(C[C@H](NC(=O)c3c(C)cccc3F)C(=O)O)cccc12 [Compound 999]
IC50 [1, 5]: 100 to 1000 nM
IC50 [2, 6]: < 10 nM

COC1CN(Cc2cnc(-c3cccc4c(C[C@H](NC(=O)C5(C(F)(F)F)CCN(CC(F)(F)F)CC5)C(=O)O)cccc34)c3ccccc23)C1 [Compound 866]
IC50 [1, 5]: > 1000 nM
IC50 [2, 6]: < 10 nM

COc1cccc(CCN2CCCC(F)C2)c1-c1cccc2c(C[C@H](NC(=O)C3(C(F)(F)F)CCN(CC(F)(F)F)CC3)C(=O)O)cccc12 (some centres unmarked) [Compound 959]
IC50 [1, 5]: 100 to 1000 nM
IC50 [2, 6]: < 10 nM

CN(C)CCc1ccc2c(c1)c(C(F)(F)F)c(-c1cccc3c(C[C@H](NC(=O)C4(C(F)(F)F)CCN(CC(F)(F)F)CC4)C(=O)O)cccc13)c(=O)n2C [Compound 707]
IC50 [1, 5]: 10 to 100 nM
IC50 [2, 6]: < 10 nM

CN(C)CCc1cccc2c(-c3cccc4c(C[C@H](NC(=O)C5(C(F)(F)F)CCN(CC(F)(F)F)CC5)C(=O)O)cccc34)nccc12 [Compound 1042]
IC50 [1, 5]: 100 to 1000 nM
IC50 [2, 6]: < 10 nM

Cn1c(=O)c(-c2cccc3c(C[C@H](NC(=O)C4(C(F)(F)F)CCN(CCF)CC4)C(=O)O)cccc23)c(C(F)(F)F)c2ccccc21 [Compound 530]
IC50 [1, 3]: 100 to 1000 nM
IC50 [2, 4]: < 10 nM

COc1ccc2c(c1-c1cccc3c(C[C@H](NC(=O)C4(C(F)(F)F)CCN(CC(F)(F)F)CC4)C(=O)O)cccc13)CN(CC(F)(F)F)CC2 [Compound 750]
IC50 [1, 5]: > 1000 nM
IC50 [2, 6]: 10 to 100 nM

Cn1c(=O)c(-c2cccc3c(C[C@H](NC(=O)C4(C(F)(F)F)CCN(C5CCOCC5)CC4)C(=O)O)cccc23)c(C(F)(F)F)c2ccccc21 [Compound 504]
IC50 [1, 3]: > 1000 nM
IC50 [2, 4]: 10 to 100 nM

O=C(O)[C@H](Cc1cccc2c(-c3ncc(C(=O)N4CCN(C5CC5)CC4)c4ccccc34)cccc12)NC(=O)C1(C(F)(F)F)CCN(CC(F)(F)F)CC1 [Compound 762]
IC50 [1, 5]: > 1000 nM
IC50 [2, 6]: 10 to 100 nM

COc1cc(CN2CCC(F)(F)CC2)cnc1-c1cccc2c(C[C@H](NC(=O)C3(C(F)(F)F)CCN(CC(F)F)CC3)C(=O)O)cccc12 [Compound 928]
IC50 [1, 5]: > 1000 nM
IC50 [2, 6]: < 10 nM

O=C(O)[C@H](Cc1cccc2c(-c3ncc(CCCN4CCCCC4)c4ccccc34)cccc12)NC(=O)C1(C(F)(F)F)CCN(CC(F)(F)F)CC1 [Compound 730]
IC50 [1, 5]: > 1000 nM
IC50 [2, 6]: < 10 nM

COc1ccc(CN2CC(F)C2)c(OC)c1-c1cccc2c(C[C@H](NC(=O)C3(C(F)(F)F)CCN(CC(F)(F)F)CC3)C(=O)O)cccc12 [Compound 781]
IC50 [1, 5]: > 1000 nM
IC50 [2, 6]: 10 to 100 nM

CCc1cccc(F)c1C(=O)N[C@@H](Cc1cccc2c(-c3c(OC)ccc(CN4CCCCC4)c3OC)cccc12)C(=O)O [Compound 649]
IC50 [1, 3]: 100 to 1000 nM
IC50 [2, 4]: < 10 nM

C[C@@H]1CN(Cc2cnc(-c3cccc4c(C[C@H](NC(=O)C5(C(F)(F)F)CCN(CC(F)(F)F)CC5)C(=O)O)cccc34)c3ccccc23)C[C@H](C)N1 [Compound 893]
IC50 [1, 5]: 100 to 1000 nM
IC50 [2, 6]: < 10 nM

COc1cccc(CCN2CCC(c3ccccc3)CC2)c1-c1cccc2c(C[C@H](NC(=O)C3(C(F)(F)F)CCN(CC(F)(F)F)CC3)C(=O)O)cccc12 [Compound 973]
IC50 [1, 5]: > 1000 nM
IC50 [2, 6]: 10 to 100 nM

O=C(O)[C@H](Cc1cccc2c(-c3ncc(CN4CCOCC45CC5)c4ccccc34)cccc12)NC(=O)C1(C(F)(F)F)CCN(CC(F)F)CC1 [Compound 914]
IC50 [1, 5]: 100 to 1000 nM
IC50 [2, 6]: < 10 nM

O=C(O)[C@H](Cc1cccc2c(-c3nccc4ccc(CCCN5CCCCC5)cc34)cccc12)NC(=O)C1(C(F)(F)F)CCN(CC(F)(F)F)CC1 [Compound 725]
IC50 [1, 5]: > 1000 nM
IC50 [2, 6]: < 10 nM

O=C(O)[C@H](Cc1cccc2c(-c3nccc4ccc(CCCN5CCCCC5)cc34)cccc12)NC(=O)C1(C(F)(F)F)CCN(CC(F)F)CC1 [Compound 748]
IC50 [1, 5]: > 1000 nM
IC50 [2, 6]: < 10 nM

COc1ccc(CN(C)C)c(OC)c1-c1cccc2c(C[C@H](NC(=O)c3c(C)cc(NCC(F)(F)F)cc3F)C(=O)O)cccc12 [Compound 607]
IC50 [1, 3]: 100 to 1000 nM
IC50 [2, 4]: < 10 nM

COc1ccc(CN2CCC(F)(F)CC2)c(OC)c1-c1cccc2c(C[C@H](NC(=O)c3c(F)cncc3Cl)C(=O)O)cccc12 [Compound 614]
IC50 [1, 3]: 100 to 1000 nM
IC50 [2, 4]: 10 to 100 nM

O=C(O)[C@H](Cc1cccc2c(-c3ncc(CN4CCC5(CCCCC5)CC4)c4ccccc34)cccc12)NC(=O)C1(C(F)(F)F)CCN(CC(F)(F)F)CC1 [Compound 857]
IC50 [1, 5]: > 1000 nM
IC50 [2, 6]: 10 to 100 nM

Cn1c(=O)c(-c2cccc3c(C[C@H](NC(=O)C4(C(F)(F)F)CCN(C(C)(C)C(F)(F)F)CC4)C(=O)O)cccc23)c(C(F)(F)F)c2ccccc21 [Compound 489]
IC50 [1, 3]: > 1000 nM
IC50 [2, 4]: 100 to 1000 nM

CCOCc1cc(OC)c(-c2cccc3c(C[C@H](NC(=O)c4c(C)cccc4F)C(=O)O)cccc23)cc1CN1CCCCC1 [Compound 1008]
IC50 [1, 5]: 100 to 1000 nM
IC50 [2, 6]: < 10 nM

Cn1c(=O)c(-c2cccc3c(C[C@H](NC(=O)C4(C(F)(F)F)CCN(C5COCC5(F)F)CC4)C(=O)O)cccc23)c(C(F)(F)F)c2ccccc21 (some centres unmarked) [Compound 512]
IC50 [1, 3]: 100 to 1000 nM
IC50 [2, 4]: < 10 nM

COc1cccc(CCN2CCC(C)(C)CC2)c1-c1cccc2c(C[C@H](NC(=O)c3c(C)cccc3F)C(=O)O)cccc12 [Compound 1033]
IC50 [1, 5]: 100 to 1000 nM
IC50 [2, 6]: < 10 nM

Cn1c(=O)c(-c2cccc3c(C[C@H](NC(=O)C4(C(F)(F)F)CCN(CC(F)F)CC4)C(=O)O)cccc23)c(C(F)(F)F)c2ccccc21 (racemic) [Compound 480]
IC50 [1, 3]: 100 to 1000 nM
IC50 [2, 4]: < 10 nM

COc1ccc(CN2CCC(C)(C)CC2)c(C(F)(F)F)c1-c1cccc2c(C[C@H](NC(=O)c3c(C)cccc3F)C(=O)O)cccc12 [Compound 658]
IC50 [1, 3]: 100 to 1000 nM
IC50 [2, 4]: < 10 nM

COc1ccc(CN2CCC(C(C)(C)C)CC2)c(OC)c1-c1cccc2c(C[C@H](NC(=O)c3c(C)cccc3F)C(=O)O)cccc12 [Compound 579]
IC50 [1, 3]: 100 to 1000 nM
IC50 [2, 4]: < 10 nM

COc1ccc(CCN2CCC(F)CC2)c(OC)c1-c1cccc2c(C[C@H](NC(=O)C3(C(F)(F)F)CCN(CC(F)(F)F)CC3)C(=O)O)cccc12 [Compound 966]
IC50 [1, 5]: 100 to 1000 nM
IC50 [2, 6]: < 10 nM

CC[C@H](N1CCC(C(=O)N[C@@H](Cc2cccc3c(-c4c(C(F)(F)F)c5ccccc5n(C)c4=O)cccc23)C(=O)O)(C(F)(F)F)CC1)C(F)(F)F [Compound 518]
IC50 [1, 3]: > 1000 nM
IC50 [2, 4]: > 1000 nM

CN1CCCC(c2cnc(-c3cccc4c(C[C@H](NC(=O)C5(C(F)(F)F)CCN(CC(F)(F)F)CC5)C(=O)O)cccc34)c(C(F)(F)F)c2)C1 (some centres unmarked) [Compound 758]
IC50 [1, 5]: 100 to 1000 nM
IC50 [2, 6]: < 10 nM

CCOCc1cc(CN2CCCCC2)c(-c2cccc3c(C[C@H](NC(=O)C4(C(F)(F)F)CCN(CC(F)(F)F)CC4)C(=O)O)cccc23)c(OC)c1 [Compound 751]
IC50 [1, 5]: > 1000 nM
IC50 [2, 6]: 10 to 100 nM

CC1(C(=O)N[C@@H](Cc2cccc3c(-c4ncc(CN5CCCCC5)c5ccccc45)cccc23)C(=O)O)CCN(CC(F)(F)F)CC1 [Compound 576]
IC50 [1, 3]: > 1000 nM
IC50 [2, 4]: < 10 nM
